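48-hour exposure; five concentrations; linearly interpolated endpoints. GI50 = concentration required for 50% inhibition of growth. Definition used: TGI = concentration required for complete inhibition of growth.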

Data on eleven compounds can be found in PubChem BioAssay (NCI).

Common to all, as to experiment: NCI tumour cell line growth inhibition, 48 h
The subject of assay [1] is NCI-H226 lung.
The subject of assay [2] is OVCAR-5 ovarian.
Assay [3] has as its system HCT-15 colon.
Assay [4] deals with TK-10 renal.
Assay [5] has as its system T-47D breast.
Assay [6] has as its system HOP-92 NSCLC.
Assay [7] relates to CAKI-1 renal.
Assay [8] concerns SW-620 colon.

Regarding `Oc1ccc(-c2[nH]c3ccccc3c2-c2nc3ccccc3o2)cc1`, the GI50 is 3.14 µM in assay [1]; 4.49 µM in assay [2]; 2.97 µM in assay [3]; 5.49 µM in assay [4]; 3.08 µM in assay [5]; 2.73 µM in assay [6]. Moreover, the results for the GI50 in assay [7] and in assay [8] were 2.62 µM and 3.04 µM, respectively. The TGI in assay [1] is 15.3 µM; in assay [2], 17.2 µM; in assay [3], 13.1 µM; in assay [4] it was 16.8 µM; in assay [5], 15.4 µM; in assay [6] it was 15.9 µM. For the same compound, the TGI in assay [7] was 14.2 µM; in assay [8], 13.4 µM.
Take `COc1ccc(C(=O)/C=C/c2ccc(OCc3ccccc3)c(OC)c2)cc1OC`: the GI50 in assay [1] is 3.18 µM; in assay [2], 3.55 µM; in assay [3] it was 2.78 µM; in assay [4], 4.32 µM; in assay [5], 4.33 µM; in assay [6], 1.4 µM. Moreover, the GI50 was 4.07 µM in assay [7] and 3.05 µM in assay [8]. Also, the TGI in assay [1] is 36.6 µM; in assay [2], > 100 µM; in assay [3] it was > 100 µM; in assay [4], 43.8 µM; in assay [5], > 100 µM; in assay [6] it was 5.81 µM. The TGI in assay [7] and in assay [8] was > 100 µM throughout.
With `CCN(CC)Cc1cc(Nc2cc(C(F)(F)F)c(C#N)c3nc4ccccc4n23)ccc1O`, the GI50 in assay [1] was 1.34 µM; in assay [2], 4.84 µM; in assay [3] it was 0.78 µM; in assay [4], 1.47 µM; in assay [5], 0.452 µM; in assay [6] it was 0.59 µM. For the same compound, the GI50 in assay [7] was 1.77 µM; in assay [8] it was 2.61 µM. Further, the TGI was 10.4 µM in assay [1]; 23.4 µM in assay [2]; 2.76 µM in assay [3]; 9.43 µM in assay [4]; 3.65 µM in assay [5]; 3.48 µM in assay [6]. For the same compound, the TGI stood at 11.2 µM in assay [7] and 10.2 µM in assay [8].
For the compound `CN(C)c1ccc2c(c1)OC(N)=C(C#N)C2c1ccc2c(c1)CCCN2C` (centres undefined), the GI50 in assay [1] was 5.44 µM; in assay [2], 59 µM; in assay [3] it was 0.789 µM; in assay [4], 10.2 µM; in assay [5], 11.7 µM; in assay [6], 2.82 µM. Moreover, the GI50 in assay [7] was 3.33 µM; in assay [8], 0.938 µM. Besides, the TGI in assay [1] is 71 µM; in assay [2] it was > 100 µM; in assay [3] it was > 100 µM; in assay [4], 91.7 µM; in assay [5], 51.6 µM; in assay [6] it was 57 µM. In addition, the TGI in assay [7] and in assay [8] was > 100 µM throughout.
As to `Cc1ccc(NC2=CC(=O)C(=O)c3ccccc32)c(C)c1`, the GI50 was 2.85 µM in assay [1]; 6.66 µM in assay [2]; 2.74 µM in assay [3]; 0.596 µM in assay [4]; 3.96 µM in assay [5]; 13.3 µM in assay [6]. Further, the GI50 in assay [7] was 2 µM; in assay [8], 3.26 µM. The TGI in assay [1] was 12.2 µM; in assay [2] it was 21.6 µM; in assay [3] it was 17.1 µM; in assay [4], 12.2 µM; in assay [5] it was 25.2 µM; in assay [6], 42.3 µM. For the same compound, the TGI is 7.95 µM in assay [7] and 12.8 µM in assay [8].
Take `O=C(O)Cn1ccc(=O)c2c([N+](=O)[O-])cccc21`: the TGI in assay [1], in assay [2], in assay [3], in assay [4], in assay [5] and in assay [7] was > 100 µM throughout. Further, in assay [8], the TGI was > 100 µM.
Regarding `Cc1nn2c(-c3nc4cc(Cl)c(Cl)cc4[nH]3)c(-c3ccc(F)cc3)nc2s1`, the GI50 is 4.01 µM in assay [1]; 8.98 µM in assay [2]; > 100 µM in assay [3]; 2.19 µM in assay [4]; 1.95 µM in assay [5]; 7.09 µM in assay [7]. For the same compound, the GI50 in assay [8] is 10.2 µM. The TGI was 31.1 µM in assay [1]; > 100 µM in assay [2]; > 100 µM in assay [3]; 4.69 µM in assay [4]; 14.5 µM in assay [5]; > 59.4 µM in assay [7]. Moreover, the TGI in assay [8] was > 100 µM.
As to `NCC(Cc1ccccc1)P(=O)(O)O` (centres undefined), the TGI in assay [1], in assay [2], in assay [3], in assay [4], in assay [5] and in assay [6] was > 100 µM in each case. Moreover, the TGI in assay [7] and in assay [8] was > 100 µM each time.
For `N#Cc1cccc(C2C3=C(COC3=O)N(CCO)c3cc4c(cc32)CCC4)c1` (centres undefined), the GI50 is 1.67 µM in assay [1]; 0.237 µM in assay [2]; 0.127 µM in assay [3]; 0.436 µM in assay [4]; 0.271 µM in assay [5]; 0.871 µM in assay [6]. Moreover, the GI50 in assay [7] was 0.109 µM; in assay [8] it was 0.153 µM. Further, the TGI in assay [1] was > 50 µM; in assay [2], > 50 µM; in assay [3], > 50 µM; in assay [4], > 50 µM; in assay [5], > 50 µM; in assay [6], 35.3 µM. Further, the TGI in assay [7] and in assay [8] was > 50 µM each time.
As for `O=C(Nc1ccc(Br)cc1)Nc1cccc(Br)c1`, the GI50 was 47.1 µM in assay [1], > 100 µM in assay [2], > 100 µM in assay [7] and 5.54 µM in assay [8]. In addition, the TGI in assay [1], in assay [2], in assay [7] and in assay [8] was > 100 µM in each case.
For the compound `CC1(C)OC2OC(COC(=O)C(c3ccccc3)c3ccccc3)C3OC(C)(C)OC3C2O1` (centres undefined), the GI50 in assay [1], in assay [2], in assay [4] and in assay [7] was > 100 µM throughout. The TGI in assay [1], in assay [2], in assay [3], in assay [4], in assay [6] and in assay [7] was > 100 µM throughout. Also, the TGI in assay [8] was > 100 µM.
